Series [1] in a line: Long-term stability of sulfate salt, HPLC content. Type of series: physicochemical. As to the method: In order to compare the long-term stabilities of (6R)-5,10-CH2-THF hemisulfate salt to the long-term stabilities of (6R)-5,10-CH2-THF sulfate salt prepared according to EP 0 537 492 B1, stability data for (6R)-5,10-CH2-THF sulfate salt has been generated at various temperatures and humidities. (a) Stability of (6R)-5,10-CH2-THF Sulfate (6R)-5,10-CH2-THF sulfate salt was prepared according to literature procedures (EP 0 537 492 B1) and stored for 15 months at −20° C. Subsequently, samples of the product were stored at 5° C. resp. at 25° C. and 60% relative humidity resp. at 40° C. and 75% relative humidity. The content of (6R)-5,10-CH2-THF sulfate salt remaining in the sample was measured by HPLC at periodic intervals. The content of (6R)-5,10-CH2-THF sulfate was compared to the initial value at the time of preparation (% rel.).

The nature of series [2]: Content of degradation product 10-formyltetrahydrofolic acid in sulfate salt, HPLC. It counts as physicochemical. As to the method: (b) Content of the degradation product 10-formyl-(6R)-tetrahydrofolic acid (6R)-5,10-CH2-THF sulfate salt was prepared according to literature procedures (EP 0 537 492 B1) and stored for 15 months at −20° C. Subsequently, samples of the product were stored at 5° C. resp. at 25° C. and 60% relative humidity resp. at 40° C. and 75% relative humidity. The content of 10-formyltetrahydrofolic acid, a major degradation product, was measured by HPLC at periodic intervals and disclosed as absolute values (% w/w).

The conditions of series [3]: physiological common salt solution, +25° C., cited from earlier work.
The mark [4] stands for this setting: after 15 months at −20° C., then 5° C., 0 months.
Where [5] appears, read: after 15 months at −20° C., then 5° C., 6 months.
[6] abbreviates: after 15 months at −20° C., then 25° C./60% rh, 0 months.
[7] abbreviates: after 15 months at −20° C., then 25° C./60% rh, 6 months.
The mark [8] stands for this setting: after 15 months at −20° C., then 40° C./75% rh, 0 months.
The mark [9] stands for this setting: after 15 months at −20° C., then 40° C./75% rh, 6 months.

Each structure is given as a SMILES string. Structures can show the parent of a compound that is named as a salt. Where two headings read alike, the source gives them in different places.

As for `Nc1nc2c(c(=O)[nH]1)N1CN(c3ccc(C(=O)N[C@@H](CCC(=O)O)C(=O)O)cc3)C[C@H]1CN2` [(6R)-5,10-CH2-THF sulfate salt, 5,10-methylene-(6R)-tetrahydrofolic acid], the “(6R)-5,10-CH2—THF sulfate (% rel.)” value stood at 98.7 % rel in series [1] (setting [4]); 97.3 % rel in series [1] (setting [5]); 98.7 % rel in series [1] (setting [6]); 95.5 % rel in series [1] (setting [7]); 98.7 % rel in series [1] (setting [8]); 95.0 % rel in series [1] (setting [9]). Besides, the “(6R)-5,10-CH2—THF sulfate (% rel.)” value is recorded as 100.0 % rel in series [1] (−20° C., 0 months) and 98.7 % rel in series [1] (−20° C., 15 months). The “10-formyltetrahydrofolic acid (% w/w)” value was found to be 1.37 % w/w in series [2] (setting [4]); 1.47 % w/w in series [2] (setting [5]); 1.37 % w/w in series [2] (setting [6]); 1.89 % w/w in series [2] (setting [7]); 1.37 % w/w in series [2] (setting [8]); 2.36 % w/w in series [2] (setting [9]). Besides, the “10-formyltetrahydrofolic acid (% w/w)” value in series [2] (−20° C., 0 months) is on record as 0.53 % w/w; in series [2] (−20° C., 15 months) it was 1.37 % w/w.
Take `Nc1nc2c(c(=O)[nH]1)N1CN(c3ccc(C(=O)N[C@@H](CCC(=O)O)C(=O)O)cc3)C[C@H]1CN2` (mixture of isomers) [5,10-methylene-(6R,S)-tetrahydrofolic acid]: the “% relative stability” value in series [3] (with the exclusion of air, 0 hours) is 100.0%; in series [3] (with the exclusion of air, 4.0 hours), 58.0%; in series [3] (with the exclusion of air, 24.0 hours), 38.0%; in series [3] (with the exclusion of air, 26.0 hours) it was 18.0%; in series [3] (with the exclusion of air, 48.0 hours) it was 8.0%; in series [3] (without the exclusion of air, 0 hours) it was 100.0%. For the same compound, the “% relative stability” value is 84% in series [3] (without the exclusion of air, 4.0 hours); 12.0% in series [3] (without the exclusion of air, 24.0 hours); 8.0% in series [3] (without the exclusion of air, 26.0 hours); 6.0% in series [3] (without the exclusion of air, 48.0 hours).

Source of the values: patent US11306094B2, “Stable formulations of 5,10-methylene-(6R)-tetrahydrofolic acid” (MERCK & CIE, priority 2016, dated 2022).
